The values below come from ChEMBL document CHEMBL1201862, “PubChem BioAssay data set” (2004).

Holding throughout (test): growth of human tumour cells (NCI), 48 h
The test system of experiment [1] is Malme-3M.
In experiment [2] the test system is LXFL 529.
Experiment [3] deals with SNB-75.
Experiment [4] relates to DMS-273.
For experiment [5], the system named is SF-268.
The subject of experiment [6] is SN12C.
In experiment [7] the test system is SR.
The test system of experiment [8] is XF498.
The test system of experiment [9] is DMS-114.
Experiment [10] concerns A498.
The test system of experiment [11] is M19-MEL.
In experiment [12] the test system is HCT-15.
Experiment [13] has as its system SK-MEL-5.
In experiment [14] the test system is MCF7.
The test system of experiment [15] is NCI/ADR-RES.
Experiment [16] deals with DU-145.
In experiment [17] the test system is MDA-N.
Experiment [18] has as its system PC-3.
Experiment [19] concerns BT-549.
Experiment [20] has as its system Hs-578T.

SMILES strings stand for the structures.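 Test compounds were applied to cells in 96-well plates for 48 hours at 5 doses. At the GI50, growth is halved.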 Active and inactive are the calls of the source. No stated cut-off is given here; in the data, active = GI50 up to about 1.1 µM and inactive = higher.

Regarding `Cn1cc(NC(=O)[C@H]2CCC(N)=N2)cc1C(=O)NCCC(=N)N`, the GI50 in experiment [1], in experiment [2], in experiment [3], in [4], in [5] and in experiment [6] was > 100 µM (inactive) each time. The GI50 in experiment [7], in [8] and in experiment [9] was > 100 µM (inactive) each time.

Take `COC(=O)C(=O)Cc1nc2ccccc2o1`: the GI50 in [10] was > 100 µM (inactive); in [1], > 100 µM (inactive); in [2], > 100 µM (inactive); in experiment [11] it was > 100 µM (inactive); in [12], more than 100 µM; in experiment [3], > 100 µM (inactive). The GI50 in experiment [5], in experiment [6], in experiment [7], in [8] and in experiment [9] was > 100 µM (inactive) each time.

Consider `CN(C)CCC(O)(c1ccccc1)C(O)(CCN(C)C)c1ccccc1` (stereo unspecified), for which the GI50 in experiment [10] was > 100 µM (inactive); in experiment [1], 17.7 µM (inactive); in [2], > 100 µM (inactive); in [11], > 100 µM (inactive); in [12], more than 100 µM; in [3] it was 33.1 µM (inactive). In addition, the GI50 in experiment [5] was > 100 µM (inactive); in [6], > 100 µM (inactive); in experiment [13] it was 38.5 µM (inactive); in experiment [8], 38.7 µM (inactive); in experiment [9], > 100 µM (inactive).

Regarding `Cc1cccc(C(C)C)c1NC(=O)/C(Cc1c([N+](=O)[O-])cccc1[N+](=O)[O-])=N/NC(=O)CC#N`, the GI50 in [10] was 44.4 µM (inactive); in experiment [1], > 100 µM (inactive); in [2], > 100 µM (inactive); in experiment [11], > 100 µM (inactive); in experiment [12], more than 100 µM; in [3], > 100 µM (inactive). In addition, the GI50 in experiment [4], in [5], in experiment [13] and in experiment [9] was > 100 µM (inactive) each time.

As for `C/C=C/C1=CC(=O)C(O)C1O` (stereo unspecified), the GI50 in experiment [10] was 8.28 µM (inactive); in [1], 27.1 µM (inactive); in [11], 26.7 µM (inactive); in experiment [12] it was 27.6 µM; in experiment [14], 30.8 µM (inactive); in [3], 23.6 µM (inactive). In addition, the GI50 is 25.9 µM (inactive) in experiment [4]; 26.5 µM (inactive) in [5]; 23.1 µM (inactive) in experiment [6]; 28.4 µM (inactive) in experiment [13]; 18.5 µM (inactive) in experiment [8]; 25.5 µM (inactive) in [15]. The GI50 in [9] was 22 µM (inactive).

Regarding `O=C(O)C1=CNC(C(=O)O)=NN1`, the GI50 is > 100 µM (inactive) in experiment [1]; > 100 µM (inactive) in experiment [2]; > 100 µM (inactive) in experiment [11]; more than 100 µM in [12]; > 100 µM (inactive) in experiment [3]; > 100 µM (inactive) in [5]. Further, the GI50 in experiment [6], in experiment [13], in [7], in [8] and in experiment [9] was > 100 µM (inactive) each time.

As for `O=C(NC1C=CCC2C(=O)N(c3ccccc3)C(=O)C12)OCc1ccccc1` (stereo unspecified), the GI50 in [2], in [11], in experiment [3], in [4], in [5] and in experiment [6] was > 100 µM (inactive) each time. The GI50 in experiment [13], in [7] and in [8] was > 100 µM (inactive) each time.

In the case of `C[C@H](O)C(=O)SC[C@H](NC(=O)CC[C@@H](N)C(=O)O)C(=O)NCC(=O)O`, the GI50 was > 100 µM (inactive) in experiment [1]; > 100 µM (inactive) in experiment [2]; > 100 µM (inactive) in experiment [11]; more than 100 µM in experiment [12]; 14.5 µM (inactive) in experiment [3]; > 100 µM (inactive) in [4]. Further, the GI50 in experiment [5], in experiment [6], in experiment [13], in experiment [7] and in [9] was > 100 µM (inactive) throughout.

For `COC(=O)C(C/C=C(\C)c1ccc(Cl)cc1)C(C)=O` (stereo unspecified), the GI50 was 34.4 µM (inactive) in experiment [10]; 40.3 µM (inactive) in experiment [1]; 32.7 µM (inactive) in [11]; 37.5 µM in experiment [12]; 37.7 µM (inactive) in experiment [14]; 29.2 µM (inactive) in [3]. The GI50 in experiment [4] is 32.7 µM (inactive); in experiment [5], 48.3 µM (inactive); in experiment [6] it was 56 µM (inactive); in experiment [13] it was 21.3 µM (inactive); in experiment [8] it was > 65.8 µM (inactive); in [15] it was 23.7 µM (inactive). Further, in experiment [9], the GI50 is 19.9 µM (inactive).

Consider `CCCCCCCSc1nc2c(C(=O)OCC)ncn2c2ccccc12`, for which the GI50 is > 100 µM (inactive) in experiment [1]; > 100 µM (inactive) in experiment [2]; > 100 µM (inactive) in [11]; more than 100 µM in [12]; > 100 µM (inactive) in experiment [4]; > 100 µM (inactive) in experiment [5]. Further, the GI50 in [6], in [7], in [8] and in [9] was > 100 µM (inactive) in each case.

As to `CC[C@]12C=CCN3CC[C@@]4(c5cc(Br)c(OC)c([N+](=O)[O-])c5N(C)[C@H]4[C@@](O)(C(=O)OC)[C@@H]1OC(C)=O)[C@@H]32`, the GI50 in experiment [10] was 44.5 µM (inactive); in experiment [1], 89.5 µM (inactive); in experiment [16] it was 98.2 µM (inactive); in experiment [12], 65.3 µM; in experiment [17], 37.2 µM (inactive); in experiment [14], 37.4 µM (inactive). Besides, the GI50 in experiment [3] was 30.5 µM (inactive); in experiment [5], 30.1 µM (inactive); in experiment [18], 40.4 µM (inactive); in experiment [6] it was 88.7 µM (inactive); in experiment [19], > 100 µM (inactive); in [13], 36.2 µM (inactive). The values for the GI50 in experiment [7], in experiment [15] and in experiment [20] were 25.7 µM (inactive), 48.1 µM (inactive) and 36.1 µM (inactive), respectively.

Take `C=CC(C)C1(CCCOCc2ccccc2)C(=S)N2CCC3(CC24CCCC14)OCCO3` (stereo unspecified): the GI50 was 5.01 µM (inactive) in [10]; 47.5 µM (inactive) in experiment [1]; 6.1 µM (inactive) in [2]; 25.6 µM (inactive) in experiment [11]; more than 100 µM in experiment [12]; 0.0506 µM (active) in experiment [3]. The GI50 in experiment [4] was 10.3 µM (inactive); in [5], 5.93 µM (inactive); in experiment [6], 91.6 µM (inactive); in experiment [13], 5.61 µM (inactive); in [8] it was 3.06 µM (inactive); in experiment [9], 4.97 µM (inactive).

Consider `c1ccc2c(c1)CCCC/C2=N/OCC1CO1` (stereo unspecified), for which the GI50 is > 100 µM (inactive) in experiment [10]; 67.6 µM (inactive) in experiment [1]; 36.3 µM (inactive) in experiment [2]; more than 100 µM in experiment [12]; 54.5 µM (inactive) in experiment [3]; 53.1 µM (inactive) in experiment [4]. Moreover, the GI50 in experiment [5] is 58.3 µM (inactive); in [6] it was 51.5 µM (inactive); in experiment [13] it was 35.5 µM (inactive); in experiment [7] it was 26.4 µM (inactive); in experiment [8], 29.4 µM (inactive); in experiment [9], 34.8 µM (inactive).

For `Cc1cc2cc3c(C)cc(=O)oc3c(C)c2o1` [TRIOXSALEN], the GI50 in experiment [10] is > 100 µM (inactive); in experiment [1], > 100 µM (inactive); in [16] it was > 100 µM (inactive); in [12], more than 100 µM; in experiment [17], > 100 µM (inactive); in experiment [14], > 100 µM (inactive). Moreover, the GI50 in [3], in experiment [5], in experiment [18], in experiment [6], in experiment [19] and in experiment [13] was > 100 µM (inactive) throughout. In addition, the GI50 in [7], in experiment [15] and in experiment [20] was > 100 µM (inactive) throughout.

As for `O=C(O)CN(CC(=O)O)C(C(=O)O)c1ccccc1` (stereo unspecified), the GI50 in experiment [10] was > 100 µM (inactive); in [1], > 100 µM (inactive); in experiment [16] it was > 100 µM (inactive); in experiment [12], more than 100 µM; in experiment [17], > 100 µM (inactive); in experiment [14] it was > 100 µM (inactive). In addition, the GI50 in [3], in experiment [5], in experiment [18], in experiment [6], in experiment [19] and in experiment [13] was > 100 µM (inactive) throughout. The GI50 in [7], in [15] and in experiment [20] was > 100 µM (inactive) each time.

Regarding `N#CCc1c(F)c(F)c(F)c(F)c1F`, the GI50 in experiment [10] is > 100 µM (inactive); in experiment [1], > 100 µM (inactive); in experiment [16] it was > 100 µM (inactive); in experiment [12], more than 100 µM; in [17] it was > 100 µM (inactive); in [14], > 100 µM (inactive). For the same molecule, the GI50 in [5] was > 100 µM (inactive); in experiment [18], > 100 µM (inactive); in [6] it was > 100 µM (inactive); in [19], > 100 µM (inactive); in [13] it was 54.6 µM (inactive); in [7], > 100 µM (inactive). Moreover, the GI50 in experiment [15] and in experiment [20] was > 100 µM (inactive) each time.
